# From patent US7527967B2, “Recombinant baculovirus and virus-like particle” (priority 2003, dated 2009)
# Tested on: vAtEGp64S966 baculovirus (spike protein) entry into Vero E6 cells
# Assay type: cell-based
row,Compound,blocking the entry of baculovirus into Vero E6 cells
1,"CCC(=O)c1ccc2c(c1)N(CC(C)N(C)C)c1ccccc1S2 (stereo not drawn) [compound 0649, Propiomazine]",very effective in blocking the entry
2,"CSc1ccc2c(c1)N(CCC1CCCCN1C)c1ccccc1S2 (stereo not drawn) [compound 2025, Thioridazine]",very effective in blocking the entry
3,"CN1CCN(CCCN2c3ccccc3Sc3ccc(Cl)cc32)CC1 [compound 0643, Prochlorperazine]",very effective in blocking the entry
